We go through 25 compounds from US20140107100A1, “Benzoxazepines as Inhibitors of PI3K/mTOR and Methods of Their Use and Manufacture” (EXELIXIS, INC., priority 2010, published 2014).

Bounds are passed on as bounds.

One may read the IC50 as the point on the concentration scale where inhibition reaches its midpoint.

The target in this test is mTOR/GbL/Raptor (mTORC1) (Homo sapiens, UniProt P42345). The test can be described thus: mTOR/GbL/Raptor (mTORC1) ELISA assay, phosphorylation of 4E-BP1. It is filed as biochemical. To be noted: 0.2 nM mTORC1, 40 uM ATP, 50 nM NHis-tagged 4E-BP1, 120 minutes; read-out: IC50 in this assay (mTORC1 ELISA). The method, boiled down:
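Phospho-4E-BP1 was quantified by luminescent ELISA (anti-phospho-4E-BP1 IgG, HRP-tagged secondary) after capture of the His-tagged substrate on Ni-chelate plates.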
With `Cc1cc(-c2cnc3sc(N)nc3c2)cc2c1OCCN(c1nc(C3CCCN3)nc(C)c1C(C)C)C2` (stereo not shown) [Compound 146, 6-{9-methyl-4-[6-methyl-5-(1-methylethyl)-2-pyrrolidin-2-ylpyrimidin-4-yl]-2,3,4,5-tetrahydro-1,4-benzoxazepin-7-yl}[1,3]thiazolo[5,4-b]pyridin-2-amine], the IC50 was ≤ 100 nM. In the case of `Cc1cc(-c2cnc3sc(N)nc3c2)cc2c1OCCN(c1nc([C@@H]3CC(F)(F)CN3)nc(C)c1C(C)C)C2` [Compound 147, 6-(4-{2-[(2S)-4,4-difluoropyrrolidin-2-yl]-6-methyl-5-(1-methylethyl)pyrimidin-4-yl}-9-methyl-2,3,4,5-tetrahydro-1,4-benzoxazepin-7-yl)[1,3]thiazolo[5,4-b]pyridin-2-amine] it was ≤ 100 nM.

`CNc1ncnc(N2CCOc3c(C)cc(-c4cnc5sc(N)nc5c4)cc3C2)c1[N+](=O)[O-]` [Compound 148, 6-{9-methyl-4-[6-(methylamino)-5-nitropyrimidin-4-yl]-2,3,4,5-tetrahydro-1,4-benzoxazepin-7-yl}[1,3]thiazolo[5,4-b]pyridin-2-amine]: the concentration for half-maximal inhibition (IC50) was 100 to 500 nM. In the case of `Cc1cc(-c2cnc3sc(N)nc3c2)cc2c1OCCN(c1nc(C3CCCN3C)nc(C)c1C(C)C)C2` (stereo not shown) [Compound 149, 6-{9-methyl-4-[6-methyl-5-(1-methylethyl)-2-(1-methylpyrrolidin-2-yl)pyrimidin-4-yl]-2,3,4,5-tetrahydro-1,4-benzoxazepin-7-yl}[1,3]thiazolo[5,4-b]pyridin-2-amine] it was ≤ 100 nM. The result for `Cc1cc(-c2cnc3sc(N)nc3c2)cc2c1OCCN(c1nc(C3CC3)nc(C)c1C(C)C)C2` [Compound 150, 6-{4-[2-cyclopropyl-6-methyl-5-(1-methylethyl)pyrimidin-4-yl]-9-methyl-2,3,4,5-tetrahydro-1,4-benzoxazepin-7-yl}[1,3]thiazolo[5,4-b]pyridin-2-amine] reads ≤ 100 nM; that for `Cc1cc(-c2cnc3sc(N)nc3c2)cc2c1OCCN(c1nc([C@@H]3C[C@@H](F)CN3)nc(C)c1C(C)C)C2` [Compound 151, 6-(4-{2-[(2S,4R)-4-fluoropyrrolidin-2-yl]-6-methyl-5-(1-methylethyl)pyrimidin-4-yl}-9-methyl-2,3,4,5-tetrahydro-1,4-benzoazepin-7-yl)[1,3]thiazolo[5,4-b]pyridin-2-amine], ≤ 100 nM; that for `COc1nc(C)c(C(C)C)c(N2CCOc3c(C)cc(-c4cnc5sc(N)nc5c4)cc3C2)n1` [Compound 152, 6-{9-methyl-4-[6-methyl-5-(1-methylethyl)-2-(methyloxy)pyrimidin-4-yl]-2,3,4,5-tetrahydro-1,4-benzoxazepin-7-yl}[1,3]thiazolo[5,4-b]pyridin-2-amine], ≤ 100 nM. On to `COCC(C)c1c(C)nc(C)nc1N1CCOc2c(C)cc(-c3cnc4sc(N)nc4c3)cc2C1` (stereo not shown) [Compound 153, 6-(4-{2,6-dimethyl-5-[1-methyl-2-(methyloxy)ethyl]pyrimidin-4-yl}-9-methyl-2,3,4,5-tetrahydro-1,4-benzoxazepin-7-yl)[1,3]thiazolo[5,4-b]pyridin-2-amine], for which the IC50 is ≤ 100 nM. For the compound `COCCOc1nc(C)c(C(C)C)c(N2CCOc3c(C)cc(-c4cnc5sc(N)nc5c4)cc3C2)n1` [Compound 154, 6-{9-methyl-4-[6-methyl-5-(1-methylethyl)-2-{[2-(methyloxy)ethyl]oxy}pyrimidin-4-yl]-2,3,4,5-tetrahydro-1,4-benzoxazepin-7-yl}[1,3]thiazolo[5,4-b]pyridin-2-amine], the IC50 is ≤ 100 nM. The result for `COCCc1nc(C)c(C(C)C)c(N2CCOc3c(C)cc(-c4cnc5sc(N)nc5c4)cc3C2)n1` [Compound 155, 6-(9-methyl-4-{6-methyl-5-(1-methylethyl)-2-[2-(methyloxy)ethyl]pyrimidin-4-yl}-2,3,4,5-tetrahydro-1,4-benzoxazepin-7-yl)[1,3]thiazolo[5,4-b]pyridin-2-amine] reads ≤ 100 nM.

As to `Cc1cc(-c2cnc3sc(N)nc3c2)cc2c1OCCN(c1nc(CN(C)CCF)nc(C)c1C(C)C)C2` [Compound 156, 6-{4-[2-{[(2-fluoroethyl)(methyl)amino]methyl}-6-methyl-5-(1-methylethyl)pyrimidin-4-yl]-9-methyl-2,3,4,5-tetrahydro-1,4-benzoxazepin-7-yl}[1,3]thiazolo[5,4-b]pyridin-2-amine], the IC50 was ≤ 100 nM. Turning to `COc1cc(-c2cnc3sc(N)nc3c2)cc2c1OCCN(c1nc(CN(C)C)nc(C)c1C(C)C)C2` [Compound 157, 6-[4-{2-[(dimethylamino)methyl]-6-methyl-5-(1-methylethyl)pyrimidin-4-yl}-9-(methyloxy)-2,3,4,5-tetrahydro-1,4-benzoxazepin-7-yl][1,3]thiazolo[5,4-b]pyridin-2-amine], the IC50 was 100 to 500 nM.

For `CCNCc1nc(C)c(C(C)C)c(N2CCOc3c(C)cc(-c4cnc5sc(N)nc5c4)cc3C2)n1` [Compound 158, 6-(4-{2-[(ethylamino)methyl]-6-methyl-5-(1-methylethyl)pyrimidin-4-yl}-9-methyl-2,3,4,5-tetrahydro-1,4-benzoxazepin-7-yl)[1,3]thiazolo[5,4-b]pyridin-2-amine], the IC50 was ≤ 100 nM.

For the compound `CCN(CCF)Cc1nc(C)c(C(C)C)c(N2CCOc3c(C)cc(-c4cnc5sc(N)nc5c4)cc3C2)n1` [Compound 159, 6-{4-[2-{[ethyl(2-fluoroethyl)amino]methyl}-6-methyl-5-(1-methylethyl)pyrimidin-4-yl]-9-methyl-2,3,4,5-tetrahydro-1,4-benzoxazepin-7-yl}[1,3]thiazolo[5,4-b]pyridin-2-amine], the IC50 is ≤ 100 nM. In the case of `COCCc1nc(C)c(C(C)C)c(N2CCOc3c(C)cc(-c4cnc(Cl)c(NS(C)(=O)=O)c4)cc3C2)n1` [Compound 160, N-[2-chloro-5-(9-methyl-4-{6-methyl-5-(1-methylethyl)-2-[2-(methyloxy)ethyl]pyrimidin-4-yl}-2,3,4,5-tetrahydro-1,4-benzoxazepin-7-yl)pyridin-3-yl]methanesulfonamide] it was ≤ 100 nM. Consider `Cc1cc(-c2cnc(Cl)c(NS(C)(=O)=O)c2)cc2c1OCCN(c1nc(CNCCF)nc(C)c1C(C)C)C2` [Compound 161, N-(2-chloro-5-{4-[2-{[(2-fluoroethyl)amino]methyl}-6-methyl-5-(1-methylethyl)pyrimidin-4-yl]-9-methyl-2,3,4,5-tetrahydro-1,4-benzoxazepin-7-yl}pyridin-3-yl)methanesulfonamide], for which the IC50 is ≤ 100 nM.

`Cc1nc2cc(-c3cc(C)c4c(c3)CN(c3nc(N)nc(C)c3C(C)C)CCO4)cnc2[nH]1` [Compound 162, 4-methyl-5-(1-methylethyl)-6-[9-methyl-7-(2-methyl-3H-imidazo[4,5-b]pyridin-6-yl)-2,3-dihydro-1,4-benzoxazepin-4(5H)-yl]pyrimidin-2-amine]: the IC50 was ≤ 100 nM. In the case of `Cc1cc(-c2cnc3nc[nH]c3c2)cc2c1OCCN(c1nc(N)nc(C)c1C(C)C)C2` [Compound 163, 4-[7-(1H-imidazo[4,5-b]pyridin-6-yl)-9-methyl-2,3-dihydro-1,4-benzoxazepin-4(5H)-yl]-6-methyl-5-(1-methylethyl)pyrimidin-2-amine], the concentration for half-maximal inhibition (IC50) was ≤ 100 nM.

Consider `Cc1cc(-c2cnc(Cl)c(NS(C)(=O)=O)c2)cc2c1OCCN(c1nc(CNCC(F)F)nc(C)c1C(C)C)C2` [Compound 164, N-(2-chloro-5-{4-[2-{[(2,2-difluoroethyl)amino]methyl}-6-methyl-5-(1-methylethyl)pyrimidin-4-yl]-9-methyl-2,3,4,5-tetrahydro-1,4-benzoxazepin-7-yl}pyridin-3-yl)methanesulfonamide], for which the IC50 was ≤ 100 nM. As to `Cc1cc(-c2cnc3nc[nH]c3c2)cc2c1OCCN(c1nc(CNCC(F)F)nc(C)c1C(C)C)C2` [Compound 165, 2,2-difluoro-N-({4-[7-(1H-imidazo[4,5-b]pyridin-6-yl)-9-methyl-2,3-dihydro-1,4-benzoxazepin-4(5H)-yl]-6-methyl-5-(1-methylethyl)pyrimidin-2-yl}methyl)ethanamine], the half-maximal inhibitory concentration (IC50) was ≤ 100 nM.

As to `Cc1nc2ncc(-c3cc(C)c4c(c3)CN(c3nc(CNCC(F)F)nc(C)c3C(C)C)CCO4)cc2[nH]1` [Compound 166, 2,2-difluoro-N-({4-methyl-5-(1-methylethyl)-6-[9-methyl-7-(2-methyl-1H-imidazo[4,5-b]pyridin-6-yl)-2,3-dihydro-1,4-benzoxazepin-4(5H)-yl]pyrimidin-2-yl}methyl)ethanamine], the half-inhibitory concentration (IC50) was ≤ 100 nM. As for `Cc1cc(-c2cnc3nc[nH]c3c2)cc2c1OCCN(c1nc(CN(C)CC(F)F)nc(C)c1C(C)C)C2` [Compound 167, 2,2-difluoro-N-({4-[7-(1H-imidazo[4,5-b]pyridin-6-yl)-9-methyl-2,3-dihydro-1,4-benzoxazepin-4(5H)-yl]-6-methyl-5-(1-methylethyl)pyrimidin-2-yl}methyl)-N-methylethanamine], the IC50 fell in the range of 100 to 500 nM. In the case of `Cc1cc(-c2nnc(N)s2)cc2c1OCCN(c1nc(CN(C)CC(F)F)nc(C)c1C(C)C)C2` [Compound 168, 5-{4-[2-{[(2,2-difluoroethyl)(methyl)amino]methyl}-6-methyl-5-(1-methylethyl)pyrimidin-4-yl]-9-methyl-2,3,4,5-tetrahydro-1,4-benzoxazepin-7-yl}-1,3,4-thiadiazol-2-amine] it was ≤ 100 nM.

As to `Cc1cc(-c2nnc(N)s2)cc2c1OCCN(c1nc(CNCC(F)F)nc(C)c1C(C)C)C2` [Compound 169, 5-{4-[2-{[(2,2-difluoroethyl)amino]methyl}-6-methyl-5-(1-methylethyl)pyrimidin-4-yl]-9-methyl-2,3,4,5-tetrahydro-1,4-benzoxazepin-7-yl}-1,3,4-thiadiazol-2-amine], the half-maximal inhibitory concentration (IC50) was ≤ 100 nM. Turning to `CCN(Cc1nc(C)c(C(C)C)c(N2CCOc3c(C)cc(-c4nnc(N)s4)cc3C2)n1)CC(F)F` [Compound 170, 5-{4-[2-{[(2,2-difluoroethyl)(ethyl)amino]methyl}-6-methyl-5-(1-methylethyl)pyrimidin-4-yl]-9-methyl-2,3,4,5-tetrahydro-1,4-benzoxazepin-7-yl}-1,3,4-thiadiazol-2-amine], the concentration for half-maximal inhibition (IC50) lay in the range of 100 to 500 nM.
